This is an account of results in PubChem BioAssay AID328 (DTP/NCI, 2004).

SMILES strings stand for the structures. Values joined by “and” are separate entries in the source; they are usually repeats but may differ in a detail not shown here. Identical values can stand only once. Toxic doses and inconclusive results are not listed. Residues, ends and D or L forms follow the SMILES beside them. *: point of attachment. Trt = c1ccc(C(c2ccccc2)(c2ccccc2)*)cc1

In the experiment the test system is BDF1 mice, P388 leukemia ip, median survival T/C. The experiment in a line: NCI In Vivo Anticancer Drug Screen. Data for tumor model P388 Leukemia (intraperitoneal) in B6D2F1 (BDF1) mice. To be noted: endpoint: median survival time, higher = longer survival. The method in brief:
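In tumour-bearing mice, survival after compound treatment is set against the vehicle group and given as a quotient.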

Setting [1] is: dose: 100.0 mg/kg/injection, schedule: Q04DX003 (ip), vehicle: Klucel (hydroxypropylcellulose) (HPC).
Where [2] appears, read: dose: 200.0 mg/kg/injection, schedule: Q04DX003 (ip), vehicle: Klucel (hydroxypropylcellulose) (HPC).
The mark [3] stands for this setting: dose: 400.0 mg/kg/injection, schedule: Q04DX003 (ip), vehicle: Klucel (hydroxypropylcellulose) (HPC).
The mark [4] stands for this setting: dose: 100.0 mg/kg/injection, schedule: Q01DX009 (ip), vehicle: saline.
Where [5] appears, read: dose: 100.0 mg/kg/injection, schedule: Q01DX009 (ip), vehicle: Klucel (hydroxypropylcellulose) (HPC).
Setting [6] is: dose: 200.0 mg/kg/injection, schedule: Q01DX009 (ip), vehicle: Klucel (hydroxypropylcellulose) (HPC).
[7] abbreviates: dose: 400.0 mg/kg/injection, schedule: Q01DX009 (ip), vehicle: Klucel (hydroxypropylcellulose) (HPC).
Where [8] appears, read: dose: 100.0 mg/kg/injection, schedule: Q01DX001 (ip), vehicle: Klucel (hydroxypropylcellulose) (HPC).
Where [9] appears, read: dose: 50.0 mg/kg/injection, schedule: Q01DX009 (ip), vehicle: saline with Tween-80.
The mark [10] stands for this setting: dose: 100.0 mg/kg/injection, schedule: Q01DX009 (ip), vehicle: saline with Tween-80.
The mark [11] stands for this setting: dose: 200.0 mg/kg/injection, schedule: Q01DX009 (ip), vehicle: saline with Tween-80.

Turning to `O=C(OC(c1ccccc1)c1ccccc1)C(CSC(c1ccccc1)(c1ccccc1)c1ccccc1)NC(c1ccccc1)(c1ccccc1)c1ccccc1` (stereo not drawn), the T/C by setting is: under setting [1], 100 % of control; under setting [2], 109 % of control; under setting [3], 104 % of control.
Regarding `Oc1ccc(N=Cc2ccccc2O)cc1`, the T/C is 108 % of control under setting [4]; 105 % of control (dose: 100.0 mg/kg/injection, schedule: Q04DX003 (ip), vehicle: saline); 100 % of control (dose: 200.0 mg/kg/injection, schedule: Q04DX003 (ip), vehicle: saline); 110 % of control (dose: 400.0 mg/kg/injection, schedule: Q04DX003 (ip), vehicle: saline).
Turning to `CCC1OC(=O)C(C)C(OC2CC(C)(O)C(O)C(C)O2)C(C)C(O)C(C)(O)CC(C)C(=O)C(C)C(O)C1C` (stereo not drawn), the T/C is 100 % of control under setting [4] and 94 % of control (dose: 200.0 mg/kg/injection, schedule: Q01DX009 (ip), vehicle: saline).
Turning to `CCCC(C1=CC(C)(C)c2ccccc2C1=O)c1ccc(Br)cc1` (stereo not drawn), the T/C is 109 % of control (dose: 75.0 mg/kg/injection, schedule: Q01DX009 (ip), vehicle: Klucel (hydroxypropylcellulose) (HPC)); 100 % of control under setting [5]; 100 % of control under setting [1]; 113 % of control (dose: 150.0 mg/kg/injection, schedule: Q01DX009 (ip), vehicle: Klucel (hydroxypropylcellulose) (HPC)); 95 % of control and 100 % of control under setting [6]; 100 % of control under setting [2]. The T/C (dose: 300.0 mg/kg/injection, schedule: Q01DX009 (ip), vehicle: Klucel (hydroxypropylcellulose) (HPC)) was 100 % of control; the T/C under setting [7] was 95 % of control; the T/C under setting [3] was 100 % of control.
As for `COc1ccc(OC)c(C(=O)CCCC(=O)O)c1`, the T/C is 100 % of control under setting [8]; 90 % of control under setting [5]; 100 % of control under setting [1]; 104 % of control (dose: 200.0 mg/kg/injection, schedule: Q01DX001 (ip), vehicle: Klucel (hydroxypropylcellulose) (HPC)); 90 % of control under setting [6]; 91 % of control under setting [2]. The T/C (dose: 400.0 mg/kg/injection, schedule: Q01DX001 (ip), vehicle: Klucel (hydroxypropylcellulose) (HPC)) was 95 % of control; the T/C under setting [7] is 95 % of control; the T/C under setting [3] is 87 % of control.
As for `O=C(O)/C=C/c1ccc(-c2cc(C(F)(F)F)cc(C(F)(F)F)c2)o1`, the T/C under setting [9] is 108 % of control, the T/C under setting [10] is 90 % of control and the T/C under setting [11] is 106 % of control.
Take `CCOC(C[Se][Se]CC(OCC)OCC)OCC`: the T/C was 99 % of control (dose: 1.56 mg/kg/injection, schedule: Q01DX009 (ip), vehicle: saline); 102 % of control (dose: 3.13 mg/kg/injection, schedule: Q01DX009 (ip), vehicle: saline); 102 % of control (dose: 6.25 mg/kg/injection, schedule: Q01DX009 (ip), vehicle: saline).
In the case of `COc1cc2c(ccc3c4cc(OC)c(OC)cc4c[n+](C)c23)cc1O`, the T/C runs as follows: (dose: 12.5 mg/kg/injection, schedule: Q01DX009 (ip), vehicle: Klucel (hydroxypropylcellulose) (HPC)) 165 % of control; (dose: 25.0 mg/kg/injection, schedule: Q01DX009 (ip), vehicle: Klucel (hydroxypropylcellulose) (HPC)) 173 % of control; (dose: 25.0 mg/kg/injection, schedule: Q01DX010 (ip), vehicle: saline) 190 % of control; (dose: 40.0 mg/kg/injection, schedule: Q01DX009 (ip), vehicle: saline) 190 % of control; (dose: 40.0 mg/kg/injection, schedule: Q04DX003 (ip), vehicle: saline) 190 % of control; (dose: 50.0 mg/kg/injection, schedule: Q01DX009 (ip), vehicle: Klucel (hydroxypropylcellulose) (HPC)) 219 % of control. The T/C (dose: 50.0 mg/kg/injection, schedule: Q01DX010 (ip), vehicle: saline) is 210 % of control; the T/C (dose: 80.0 mg/kg/injection, schedule: Q01DX009 (ip), vehicle: saline) is 210 % of control; the T/C (dose: 80.0 mg/kg/injection, schedule: Q04DX003 (ip), vehicle: saline) was 180 % of control; the T/C under setting [5] was 230 % of control; the T/C (dose: 100.0 mg/kg/injection, schedule: Q01DX010 (ip), vehicle: saline) is 265 % of control; the T/C (dose: 160.0 mg/kg/injection, schedule: Q01DX009 (ip), vehicle: saline) is 270 % of control. Also, the T/C was 215 % of control (dose: 160.0 mg/kg/injection, schedule: Q04DX003 (ip), vehicle: saline); 205 % of control (dose: 320.0 mg/kg/injection, schedule: Q01DX009 (ip), vehicle: saline); 270 % of control (dose: 320.0 mg/kg/injection, schedule: Q04DX003 (ip), vehicle: saline).
For `CC1=CC(C(O)C(C)C)C(C)(Cc2ccc(C)cn2)NC1c1ccccc1` (stereo not drawn), the T/C by setting is: (dose: 6.25 mg/kg/injection, schedule: Q04DX003 (ip), vehicle: saline with Tween-80) 102 % of control; (dose: 12.5 mg/kg/injection, schedule: Q04DX003 (ip), vehicle: saline with Tween-80) 102 % of control; (dose: 25.0 mg/kg/injection, schedule: Q04DX003 (ip), vehicle: saline with Tween-80) 109 % of control.
In the case of `COc1ccc(CN2CC(C)NC(C)C2)cc1` (stereo not drawn), the T/C reads like this: (dose: 3.12 mg/kg/injection, schedule: Q01DX009 (ip), vehicle: water) 108 % of control; (dose: 6.25 mg/kg/injection, schedule: Q01DX009 (ip), vehicle: water) 103 % of control; (dose: 12.5 mg/kg/injection, schedule: Q01DX009 (ip), vehicle: water) 95 % of control; (dose: 25.0 mg/kg/injection, schedule: Q01DX009 (ip), vehicle: water) 91 % of control; (dose: 50.0 mg/kg/injection, schedule: Q01DX009 (ip), vehicle: water) 117 % of control; (dose: 100.0 mg/kg/injection, schedule: Q01DX009 (ip), vehicle: water) 100 % of control. Moreover, the T/C is, setting by setting: (dose: 100.0 mg/kg/injection, schedule: Q04DX003 (ip), vehicle: water) 99 % of control; (dose: 200.0 mg/kg/injection, schedule: Q01DX009 (ip), vehicle: water) 98 % of control; (dose: 300.0 mg/kg/injection, schedule: Q01DX009 (ip), vehicle: water) 117 % of control; (dose: 400.0 mg/kg/injection, schedule: Q01DX009 (ip), vehicle: water) 97 % of control.
Consider `COc1cc2c(cc1OC)C(CCN1C(=O)c3ccccc3C1=O)=NCC2`, for which the T/C reads like this: (dose: 12.5 mg/kg/injection, schedule: Q01DX009 (ip), vehicle: saline) 91 % of control; (dose: 25.0 mg/kg/injection, schedule: Q01DX009 (ip), vehicle: saline) 87 % of control; (dose: 25.0 mg/kg/injection, schedule: Q04DX003 (ip), vehicle: saline) 100 % of control; (dose: 50.0 mg/kg/injection, schedule: Q04DX003 (ip), vehicle: saline) 95 % of control.
Turning to `O=Nc1ccc2ccccc2c1O`, the T/C (dose: 50.0 mg/kg/injection, schedule: Q01DX001 (ip), vehicle: Klucel (hydroxypropylcellulose) (HPC)) is 107 % of control and the T/C under setting [8] was 104 % of control.
On to `CCCCCCCCCCCCN=Cc1cc(Cc2ccc(O)c(C=NCCCCCCCCCCCC)c2)ccc1O`, for which the T/C is 106 % of control under setting [9], 106 % of control under setting [10] and 123 % of control under setting [11].
Take `COC(=O)C(NC(=O)C(N)CSC(c1ccccc1)(c1ccccc1)c1ccccc1)C(C)C` (stereo not drawn) (H-Cys(Trt)-Val-OMe; configuration not given here): the T/C was 117 % of control (dose: 50.0 mg/kg/injection, schedule: Q01DX009 (sc), vehicle: olive oil, sesame oil, peanut oil); 90 % of control (dose: 50.0 mg/kg/injection, schedule: Q04DX003 (sc), vehicle: olive oil, sesame oil, peanut oil); 104 % of control (dose: 100.0 mg/kg/injection, schedule: Q01DX009 (sc), vehicle: olive oil, sesame oil, peanut oil); 90 % of control (dose: 100.0 mg/kg/injection, schedule: Q04DX003 (sc), vehicle: olive oil, sesame oil, peanut oil); 104 % of control (dose: 200.0 mg/kg/injection, schedule: Q01DX009 (sc), vehicle: olive oil, sesame oil, peanut oil); 100 % of control (dose: 200.0 mg/kg/injection, schedule: Q04DX003 (sc), vehicle: olive oil, sesame oil, peanut oil).
In the case of `Nc1ccccc1-c1ccccc1N`, the T/C is, setting by setting: under setting [1], 100 % of control; under setting [2], 90 % of control.
